This note sets out measurements from patent US20090012047A1, “Crystalline forms of ibandronate sodium” (priority 2006, published 2009).

The data set can be described thus: Storage stability of crystalline forms at room temperature for two years (form by XRD). It counts as physicochemical. The conditions noted are these: for Crystal form after 2 years: 1 g sample in closed glass bottle, room temperature, form by XRD, monosodium salt. As for the experimental part:
The x-ray powder diffraction was performed on Scintag X-ray powder diffractometer model X'TRA with a solid state detector at room temperature. Copper radiation of 1.5418 Å was used. The sample holder was a round standard aluminum sample holder with rough zero background. The scanning parameters were range: 2-40 degrees two-theta; scan mode: continuous scan; step size: 0.05 degrees; and at a rate of 5 degrees/minute.
1 g samples of crystalline ibandronate sodium Forms K1, D, J, H, E, Q2, QQ, K3, Q4, L, G, C, S, R, Q3, K, and Q6, as well as amorphous form were each placed into separate glass bottles, which were then closed and stored at room temperature for 2 years.

For the molecule `CCCCCN(C)CCC(O)(P(=O)([O-])O)P(=O)(O)O.[Na+]` [Form S, (1-hydroxy-3-(N-methyl-N-pentylamino)propylidene) bisphosphonic acid monosodium salt], the “Crystal form after 2 years” value is given as “Q plus additional XRD reflections at 10.4,”. For the molecule `CCCCCN(C)CCC(O)(P(=O)([O-])O)P(=O)(O)O.[Na+]` [Form H, (1-hydroxy-3-(N-methyl-N-pentylamino)propylidene) bisphosphonic acid monosodium salt], the “Crystal form after 2 years” value was “mixture of crystalline ibandronate sodium Forms H and V”. For the setting “listed as H”, the “Crystal form after 2 years” value is “H + V”.

As for `CCCCCN(C)CCC(O)(P(=O)([O-])O)P(=O)(O)O.[Na+]` [Form D, (1-hydroxy-3-(N-methyl-N-pentylamino)propylidene) bisphosphonic acid monosodium salt], for the setting “about 15° C. to about 30° C. for more than about 3 months, as described in Example 7”, the “Stability of crystalline form on storage” value was “stable”. In addition, the “Retention of crystalline form after storage” value (room temperature for two years) is on record as “maintained their crystalline form”. As to `CCCCCN(C)CCC(O)(P(=O)([O-])O)P(=O)(O)O.[Na+]` [Form C, (1-hydroxy-3-(N-methyl-N-pentylamino)propylidene) bisphosphonic acid monosodium salt], the “Crystal form after 2 years” value is on record as “Form V”.
